Data on eight compounds can be found in patent publication EP0395672B1, “ANTIVIRAL APPLICATION OF ALPHA OLIGONUCLEOTIDES” (CENTRE NATIONAL DE LA RECHERCHE SCIENTIFIQUE, priority 1987, dated 1989).

One assay has as its system L1210/BdUrd. The experiment in a line: inhibition of tumour cell proliferation. Type of assay: cell-based, murine. The conditions noted are these: Mus musculus; L1210/BdUrd (résistant à BdUrd); mean of at least two experiments; read-out: ID50 (dose d'inhibition du développement cellulaire de 50 %).
The next assay has as its system MT4. Kind of assay: inhibition of tumour cell proliferation. Type of assay: cell-based, humaine. The conditions noted are these: Homo sapiens, mean of at least two experiments, read-out: ID50 (dose d'inhibition du développement cellulaire de 50 %).
Another assay deals with MOLT/4F. The experiment in a line: inhibition of tumour cell proliferation. It is filed as cell-based, humaine. The following applies: Homo sapiens, mean of at least two experiments, read-out: ID50 (dose d'inhibition du développement cellulaire de 50 %).
The subject of another assay is L1210/0. The experiment in a line: inhibition of tumour cell proliferation. Type of assay: cell-based, murine. The conditions noted are these: Mus musculus, mean of at least two experiments, read-out: ID50 (dose d'inhibition du développement cellulaire de 50 %).
The next assay relates to CEM. The experiment in a line: inhibition of tumour cell proliferation. It is filed as cell-based, humaine. The following applies: Homo sapiens, CCRF-CEM, mean of at least two experiments, read-out: ID50 (dose d'inhibition du développement cellulaire de 50 %).
The target of assay [1] is T1, réverse transcriptase de HIV1 (Human immunodeficiency virus type 1 group M subtype B, UniProt P03366).
T1 construct: La réverse transcriptase de HIV1 ci-après abrégé RT a été partiellement purifiée; endogenous in cells; host or cells: HUT-78/HTLV-IIIb producer cell line; virus particles pelleted at 100,000 g and solubilised with Triton X-100
The experiment in a line: inhibition of exogenous reverse transcription, poly(A) template with oligo(dT)12-18 primer (Example 2). Type of assay: biochemical. From the text:
Dans les exemples qui vont suivre les α oligodésoxynucléotides α-dT, α-dT₂, α-dT₄, α-dT₆, α-dT₈, α-dT₁₀, α-dT₁₂, α-dT₁₄, α-dT₁₆ ont été dissous dans de l'eau stérilisée pour les essais de réverse transcriptase. Les concentrations ont été déterminées par spectrophotométrie (coefficient d'absorption molaire : 8880, 17760, 35520, 61800, 70000, 83300, 88800, 109800 et 138400, respectivement). Les α oligodésoxynucléotides α-dC₂₀ et α-dC₃₀ ont été dissous dans de l'eau distillée et les concentrations ont été déterminées également par spectrophotométrie (coefficient d'absorption molaire 178000 et 267000, respectivement). Les solutions étaient conservées à -20° C jusqu'à leur utilisation.
Les réactions de transcription inverse ont été effectuées avec des virus HIV dont partiellement purifiées. Les fluides de culture provenant d'une lignée cellulaire produisant un HUT-78/HTLV-IIIb ont été purifiés par centrifugation à basse vitesse. Des particules virales ont été sédimentées par centrifugation à 100.000 g pendant 30 minutes. Le Pellet viral a été incubé sur glace pendant 30 minutes avec un tampon de solubilisation contenant du triton X-100 0,1 % du dithiothréitol 1mM et du glycérol 50 % et conservé dans des aliquots à -70°C jusqu'à utilisation. Les effets inhibiteurs des α oligodésoxynucléotides contenant des bases thymine sur la réaction de transcription inverse ont été effectués avec une matrice polyrA exogène et un α oligodT₁₂₋₁₈ . Le mélange de réaction (50 µl) contenait du Tris-HCl 50 mM (pH 7,8), du dithiothréitol 5mM, du glutathione 300 µM, du EGTA 500 µM et du KCl 150 mM, du MgCl₂ 5 mM, et 1,25 µg de sérum albumine de bovin, et 1 µM de (méthyl-³H) dTTP (radioactivité spécifique 30 Ci/mmol.) (5 µCi), le mélange comportait également 4,4 µg/ml de polyrA, 7,5 µM d'oligodT et du triton X-100 0,03 %, et 10 µl de solution de composé,(contenant des concentrations variables des composés) et 10 µl de préparation de réverse transcriptase. Les effets inhibiteurs sur la transcription de HIV à l'aide de α-dC₂₀ et α-dC₃₀ ont été déterminés en utilisant une matrice exogène polyI (50 µg/ml) tandis que le mélange oligodC₁₂₋₁₈ servait d'amorce (0,44 U/ml). Le mélange de réaction avec le système polyI.oligodC contenait des réactifs décrits pour le système polyrA. oligodT mais les concentrations de MgCl et KCI ont été ajustées à 2,5 mM et […], respectivement, tandis que le dTTP trifié a été substitué par le (méthyl-³H)dCTP (radioactivité spécifique 19,5 Ci/mmol) (5 µCi). Les mélanges de réactions ont été incubés à 37°C pendant 0 à 60 minutes à quel moment 100 µl d'ADN de thymus de veau (150 µg/ml), 2 ml de Na₄P₂O₇ (0,1 M dans HCL 1 N) et 2 ml de TCA (10 % v/v) ont été ajoutés. Les solutions ont été gardées sur glace pendant au moins 30 minutes, après lesquelles la matière acide insoluble a été lavée et analysée quant à sa radioactivité.
La réverse transcriptase de HIV1 ci-après abrégé RT a été partiellement purifiée et les oligomères α ont été étudiés en fonction de leur faculté à servir d'amorce sur une matrice poly(A) dans une réaction de transcription inverse exogène.
Ces pourcentages ont été calculés de la même manière que précédemment par mesure de radioactivité, laquelle indique la quantité d'incorporation de méthyl ³H dTTP (valeurs en Cpm).

Bounds are passed on as bounds.

Regarding `Cc1cn([C@H]2C[C@H](O)[C@@H](CO)O2)c(=O)[nH]c1=O` [β dThd, reference compound], the IC50 in the assay on L1210/BdUrd is > 500 µM; with MT4, 191 ± 7 µM; with MOLT/4F it was > 500 µM; in the assay with L1210/0 it was 29 ± 1.9 µM; in the assay with CEM, 24.7 ± 3.42 µM.
As for `Nc1ncnc2c1ncn2[C@@H]1C[C@H](O)[C@@H](CO)O1` [α-2'-dAdo], the IC50 with L1210/BdUrd, in the assay with MT4, with MOLT/4F, with L1210/0 and with CEM was > 500 µM throughout.
Take `Nc1ncnc2c1ncn2[C@H]1C[C@H](O)[C@@H](CO)O1` [β dAdo, reference compound]: the IC50 in the assay on L1210/BdUrd was > 500 µM; with MT4, > 500 µM; in the assay on MOLT/4F, > 500 µM; in the assay with L1210/0, > 500 µM; with CEM, 189 ± 19 µM.
Regarding `Nc1nc2c(ncn2[C@@H]2C[C@H](O)[C@@H](CO)O2)c(=O)[nH]1` [α-2'-dGuo], the IC50 in the assay with L1210/BdUrd, in the assay with MT4, with MOLT/4F, with L1210/0 and with CEM was > 500 µM throughout.
Consider `Nc1ccn([C@@H]2C[C@H](O)[C@@H](CO)O2)c(=O)n1` [α-2'-dC], for which the IC50 with L1210/BdUrd, in the assay with MT4, with MOLT/4F, in the assay with L1210/0 and in the assay on CEM was > 500 µM in each case.
For `Nc1nc2c(ncn2[C@H]2C[C@H](O)[C@@H](CO)O2)c(=O)[nH]1` [β dGuo, reference compound], the IC50 with L1210/BdUrd came to 55.5 ± 6.8 µM; in the assay on MT4, 55.3 ± 5.3 µM; in the assay with MOLT/4F it was 79.5 ± 9.2 µM; in the assay with L1210/0, 58.2 ± 10.9 µM; in the assay with CEM it was 22.1 ± 0.6 µM.
For the compound `Cc1cn([C@@H]2C[C@H](O)[C@@H](CO)O2)c(=O)[nH]c1=O` [α-2'-dThd], the IC50 with L1210/BdUrd, in the assay with MT4, in the assay on MOLT/4F, in the assay with L1210/0 and in the assay with CEM was > 500 µM throughout.
Take `Cc1cn([C@@H]2C[C@H](O)[C@@H](CO)O2)c(=O)[nH]c1=O` [αdT]: the “pourcentages d'inhibitions de la réaction exogène de transcription inverse” value in assay [1] (0.16 uM oligomer, 7,5 μM oligo(dT)12-18 primer) was found to be 22%; in assay [1] (0.8 uM oligomer, 7,5 μM oligo(dT)12-18 primer) it was 8%; in assay [1] (4 uM oligomer, 7,5 μM oligo(dT)12-18 primer), 19%; in assay [1] (20 uM oligomer, 7,5 μM oligo(dT)12-18 primer), 46%; in assay [1] (100 uM oligomer, 7,5 μM oligo(dT)12-18 primer), 23%. Further, in assay [1] (7,5 μM oligo(dT)12-18 primer, poly(A) template, read-out: ED50 (dose requise pour inhiber la réaction de transcription inverse de 50 %)), the EC50 was > 100 µM. The “inhibition de la réaction de transcription inverse” value in assay [1] (result in words, in presence of primer βdT₁₂₋₁₈) is recorded as “aucune inhibition significative”.
